Here are results for five compounds from patent US11977074B2, “Affinity-based detection of ligand-encoded synthetic biomarkers” (Massachusetts Institute of Technology, priority 2013, dated 2024).

Where no end group is shown, it is not given here.

For assay [1], the target named is T1, thrombin (Homo sapiens, UniProt P00734). The experiment in a line: Fluorogenic NW assay with recombinant thrombin. In kind it is biochemical. On the set-up: with recombinant thrombin (15 nM; Haematologic Technologies); purchased Haematologic Technologies. The following applies: inhibitor 100 μM.
The target in the next assay is T2, MMP9 (Homo sapiens, UniProt P14780).
T2 construct: purchased R&D Systems
Description: Fluorogenic NW assay with recombinant MMP9. In kind it is biochemical. The note with it: inhibitor 100 μM. How it is done:
Fluorescent reporter-bound thrombin- or MMP-sensitive NWs (substrates PLGLRSW, SEQ ID NO: 3, or PLGVRGK, SEQ ID NO: 4, respectively) were introduced to recombinant thrombin or MMP9 (respectively). Release of homoquenched fluorophores upon proteolysis was read as increased fluorescence by plate reader at 37° C. Inhibitors Argatroban or Marimastat were incubated with the protease-NW cocktail at 100 μM. To quantify reporter release by LFA, reporter-functionalized NWs were incubated with cognate proteases, passed through a 30 kDa MW cutoff filter, quantified by LFA, and analyzed by Mann-Whitney test.
(SpectroMax Gemini EM microplate reader). Argatroban (Sigma) or Marimastat (Tocris) were incubated with the NW-protease cocktail at 100 μM final concentration. To assay proteolytic reporter release by LFA, reporter-functionalized enzyme sensitive NWs were incubated with MMP9 or thrombin as above at 37° C. for four hours and passed through a 30 kDa MW cutoff centrifugal filter. The filtered reporters were diluted to within LFA dynamic range and assayed by LFA as described below. Reporter stability experiments were performed using reporter 3 (1 μM) mixed in 1% w/v BSA with recombinant thrombin or MMP9 (both 15 nM) as above to 100 μL final volume and were incubated at 37° C. for 1 h. […]

In another assay the test system is MMP. The experiment in a line: Urinary reporters in LS174T colorectal tumor model by ELISA and LFA. Type of assay: in vivo, mice. The following applies: urine test, ELISA. (In general: ELISA stands for enzyme-linked immunosorbent assay.)
For assay [2], the target named is T3, thrombin (Mus musculus, UniProt P19221).
T3 construct: from tissue; host or cells: blood and pulmonary thrombi of live Swiss Webster mice (thromboplastin or collagen/epinephrine induced)
The experiment in a line: Urinary reporters in collagen/epinephrine thrombosis model by ELISA and LFA. In kind it is in vivo, mice. As to the method: Collection and analysis of urinary peptides. […] Urine collection times were optimized from previous studies using these disease models^[30, 31] and are dependent on site of disease and rate of enzymatic substrate cleavage. Reporter concentration in unprocessed urine was assayed by above protocols from urine diluted 1:10^2L10^4 for ELISA or 1:4-5 for LFA. Data was analyzed using receiver-operator characteristic (ROC) curves (both) and Wilcoxon signed rank test (CRC) or Mann-Whitney test (thrombosis).
Immediately following infusion, mice were placed over 96-well plates enclosed by a cylindrical tube to collect urine for 30 m (thrombosis model) or 1 h (tumor model). Urine collection times were optimized from previous studies using these disease models^[30, 31] and are dependent on site of disease and rate of enzymatic substrate cleavage. Urine was stored at −80° C. directly following collection.
Unprocessed urine was diluted (1:100-1:10,000) in 1× PBS with 1% w/v BSA and reporters were quantified by ELISA (at least 2 replicates) using standards as described above. Urine was applied to lateral flow test strips in 5 μL volume, at 1:4 (thrombosis model) or 1:5 (CRC model) dilution. Lateral flow tests were performed in triplicate as described above and test strips were allowed to dry and were quantified by automated script as described above. ELISA and LFA data was analyzed using a Wilcoxon signed rank test (CRC) and a Mann-Whitney test (thrombosis).
Urine concentration is dependent on many host and environmental factors (e.g. diet, activity level, medical history, circadian rhythm); therefore, we sought to develop a normalization strategy for the test. It was hypothesized that co-administered free reporters would pass into the urine independent of disease state and could be used to normalize the level of reporters released by protease activity.

Assay [3] concerns the target T1, thrombin. Type of assay: biochemical. Also on record: with recombinant thrombin (15 nM; Haematologic Technologies); purchased Haematologic Technologies. The note with it: R3 in tandem with thrombin-sensitive substrate on NWs; vs samples not exposed to thrombin.
Description: Following in vitro substrate cleavage by thrombin, the peptide fragments were collected by size-exclusion filtration.
Another assay relates to Swiss Webster mice. The experiment in a line: Thromboplastin-induced thrombosis, VT750-fibrin(ogen) deposition in organs. In kind it is in vivo. The following applies: bivalirudin 10 mg/kg i.v. five minutes prior to thromboplastin. How it is done: Characterization of thromboplastin-induced thrombosis: Each vial of thromboplastin containing 3-4 mg (from rabbit brain, Sigma) was dissolved in 2 mL of PBS. To quantify fibrin deposition, bovine fibrinogen (Sigma) was reacted with 3-fold molar excess of VT750 for 1 hr at RT, and purified by centrifugal size filtration (size cutoff, Millipore). Swiss Webster mice (Taconic) were lightly anesthetized with isofluorane and administered mixtures of VT750-fibrinogen (1 nmol by VT750) with thromboplastin (n=3 mice per dose) via tail vein injections. After 30 minutes, mice were euthanized by CO2 asphyxiation and organs were scanned on the LI-COR Odyssey Infrared Imaging System. Fibrin(ogen) fluorescence in each organ was quantified using ImageJ software (NIH). To test thrombin inhibition, mice were intravenously administered bivalirudin (10 mg/kg) five minutes prior to co-injection of thromboplastin. […]
We next investigated the ability of the synthetic biomarkers to detect thrombosis in living mice induced via intravenous (i.v.) administration of thromboplastin. […] To quantify PE formation, mice were co-injected with thromboplastin and the clot precursor fibrinogen (labeled with the near-infrared fluorophore VT750) so that the formation of fibrin clots by thrombin-mediated proteolysis of fibrinogen could be quantified by fluorescence analysis of whole organs (FIG. 3A). […]

Assay [4] deals with T3, thrombin. The experiment in a line: Urinary monitoring of thromboplastin-induced thrombosis by ELISA. In kind it is in vivo, mice. The following applies: bivalirudin 10 mg/kg; thromboplastin 2 μl per g b.w. As to the method: ELISA detection of bifunctionalized reporters: 96-well plates (Thermo Scientific) were incubated with either 0.8 μg/mL of anti-Flsc (GeneTex, GTX19224) or 0.4 μg/mL of anti-Alex Fluor 488 (Invitrogen, A11094) diluted in PBS overnight at 4° C. Plates were blocked with 1% w/v bovine serum albumin (Sigma) in PBS for 1 hr before 100 μL of samples were added. Reporters captured on the plate were then detected by adding 100 μL of 0.2 μg/mL neutravidin-HRP (Pierce), developed with 50 μL TMB solution (Thermo Scientific) for 5-15 minutes and quenched with 50 μL of HCl before the absorbance of the wells was determined by microplate analysis (SpectraMax Plus, Molecular Devices) at 450 nm. Plates were washed 3× with PBST between each steps and incubation occurred at RT unless otherwise stated.
Urinary monitoring of thrombosis. Experiments were conducted in a paired setup. […] Urine samples were stored at −80° C. until ELISA analysis.
The concentration of analytes in the urine is mainly dependent on the hydration state of the host (ranging from 50-1200 mOsm/kg H2O in humans)^[20] and is affected by many external factors (e.g. circadian rhythm, diet, activity, and others). […]

In assay [5] the target is T1, thrombin. Description: Fluorogenic NW assay with purified thrombin. Type of assay: biochemical. Also on record: mixed with human thrombin (2 μM); purchased Haematologic Technologies. The following applies: bivalirudin 5 mg/mL, pre-incubated two minutes.
Description: In vitro protease assays: NWs (200 nM by peptide) were mixed with human thrombin (2 μM), FVIIa (10 nM), FIXa (90 nM), FXa (160 nM), FXIa (31 nM), and activated protein C (60 nM, Haematologic Technologies) in a 384-well plate at 37° C. in activity buffers according to the manufacturer's instructions and monitored with a microplate reader (SpectroMax Gemini EM). […] For thrombin inhibition experiments, bivalirudin (Anaspec) was added to a final concentration of 5 mg/mL and pre-incubated for two minutes prior to addition of NWs.
To test substrate specificity, fluorophore-labeled derivatives were conjugated onto NWs at a valency sufficient to produce homoquenched substrates (˜40 peptides per NW) and then incubated the NWs with purified thrombin or a panel of blood clotting proteases (FXa, APC, FIXa, FVIIa, FXIa), each present at its maximal physiological concentration during thrombosis (FIG. 1B).

T2 sequence (P14780 94-707, species assumed): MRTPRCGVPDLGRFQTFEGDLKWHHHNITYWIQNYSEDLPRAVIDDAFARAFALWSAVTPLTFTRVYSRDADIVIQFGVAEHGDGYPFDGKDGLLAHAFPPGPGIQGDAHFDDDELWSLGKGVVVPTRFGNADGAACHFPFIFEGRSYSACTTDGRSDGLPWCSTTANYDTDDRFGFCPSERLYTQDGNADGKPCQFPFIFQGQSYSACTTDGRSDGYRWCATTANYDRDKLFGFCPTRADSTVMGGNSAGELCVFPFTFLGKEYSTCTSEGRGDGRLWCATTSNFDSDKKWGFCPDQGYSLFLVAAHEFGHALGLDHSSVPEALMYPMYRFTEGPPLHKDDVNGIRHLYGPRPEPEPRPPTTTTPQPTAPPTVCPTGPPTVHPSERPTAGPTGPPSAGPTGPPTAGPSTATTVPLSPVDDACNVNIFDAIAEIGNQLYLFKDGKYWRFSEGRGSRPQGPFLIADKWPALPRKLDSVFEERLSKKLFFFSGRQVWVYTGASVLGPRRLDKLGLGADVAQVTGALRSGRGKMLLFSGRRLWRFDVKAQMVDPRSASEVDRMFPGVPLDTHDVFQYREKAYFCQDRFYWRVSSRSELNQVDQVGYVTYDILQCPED

For `CC1CNc2c(cccc2S(=O)(=O)N[C@@H](CCCNC(=N)N)C(=O)N2CC[C@@H](C)C[C@@H]2C(=O)O)C1` (stereo partly shown) [Argatroban], the “fluorescence of thrombin-sensitive NWs with thrombin in presence of inhibitor” value on thrombin [1] was “No increase in fluorescence”.
On to `CNC(=O)[C@@H](NC(=O)[C@H](CC(C)C)[C@H](O)C(=O)NO)C(C)(C)C` [Marimastat], for which the “activity of MMP9 on MMP-sensitive NWs in presence of inhibitor” value at MMP9 was “no activity”.
As for “MMP-sensitive NWs: PEG-coated iron oxide nanoworms with MMP9-cleavable substrate PLGVRGK and fluorescein, VT750 or R2 reporter (also: on PEG-coated iron oxide nanoworms, fluorescein, VT750 or R2 reporter)”, the “ROC a.u.c, discrimination of CRC” value in the assay with MMP is 0.90.
Take TMR-GluFib-Biotin [Reporter R3]: the “urinary level of reporter normalized against R4 in mice harboring thrombi” value on thrombin [2] (ELISA) was “significantly increased”. In addition, on thrombin [2] (ELISA, quantified independently), the “urinary level of reporter of thrombin activity in mice harboring thrombi” value is reported as “significantly increased”. The “ratio of R3/R4 in diseased urine vs healthy controls” value on thrombin [2] (multiplexed paper strip (LFA)) is reported as “statistically significant increase”. Also, the “detection of cleaved reporter from filtrate by LFA after thrombin cleavage” value on thrombin [3] is “readily detected”.
With bivalirudin, in the assay with Swiss Webster mice, the “formation of PEs in pretreated animals” value is given as “readily prevented”. Further, at thrombin [4], the “urinary reporter levels in mice treated with inhibitor prior to thrombotic challenge” value was “abrogated”. In addition, at thrombin [5], the “proteolysis of NWs by thrombin in the presence of inhibitor” value was “negligible proteolysis”.
